Laboratory results taken from patent publication US20080039535A1, “METHODS OF IDENTIFYING AGENTS FOR TREATING NEUROLOGICAL DISORDERS” (Wyeth, priority 2006, published 2008).
Read-outs that look alike come from different tables or passages of the source.

What was measured:
[1] = test system: GPR88 KO and WT mice; test: Phencyclidine-stimulated locomotor hyperactivity; type: in vivo
[2] = target: T1, striatal dopamine D2 receptors (Mus musculus, UniProt P61168); test: [3H]spiperone binding to striatal membrane preparations; parameters: species or system mice
T1 construct: from tissue; host or cells: mouse striatum (WT and GPR88 knockout mice), membrane preparation
Experimental: Striata from 10 mice (male and female, WT & GPR88 KO) were pooled and homogenized in a motor-driven POLYTRON™ homogenizer (Kinematica AG, Newark, N.J.) at setting six for 10 seconds in 3 mL per 100 mg of wet tissue in 50 mM Tris-HCl buffer, pH 7.4, containing 120 mM NaCl, 5 mM KCl, 1.5 mM CaCl2, 4 mM MgCl2, and 1 mM EDTA. […] The binding of each concentration of radioligand was determined in duplicate. Incubations were carried out at room temperature for 120 minutes. The final concentration of the membrane protein in each binding assay was approximately 70 μg/ml. Butaclamol (+), (10 μM), (Sigma-Aldrich, St. Louis, Mo.) was used to define the nonspecific binding. The incubations were terminated by rapid filtration using a Wallac Tomtec harvester (Waltham, Mass.) and buffer-presoaked glass fiber filter mats (GF/B, Whatman Inc. Florham Park, N.J.). […] The radioactivity of the filters was then counted in a Wallac 1205 scintillation counter (Perkin Elmer Life and Analytical Sciences).
The estimates of Bmax (the number of available binding receptors) and Kd (the dissociation constant) were calculated by fitting the specific binding data with nonlinear regression using GraphPad PRISM™ data analysis software (GraphPad Software, San Diego, Calif.).

[3] = test system: GPR88 KO and WT mice; test: Amphetamine-stimulated locomotor hyperactivity; type: in vivo; conditions: 3 mg/kg i.p.
Experimental: The amphetamine-stimulated locomotor hyperactivity assay is another type of assay to model the neuropathological states in schizophrenia, similar to the hyperdopaminergia in the ventral striatum. To measure spontaneous activity and amphetamine-stimulated locomotor hyperactivity, the mice were individually placed in Opto-Veramax-3 monitor cages (Columbus Instruments, Columbus, Ohio) and allowed to habituate for 30 minutes with room light and white noise on. After habituation, each mouse was injected with amphetamine (AMPH, 3 mg/kg) in the intraperitoneum. During the first 30 minutes, the spontaneous activity was recorded every 10 minutes. After amphetamine administration, amphetamine-stimulated locomotor hyperactivity was measured every 10 minutes over a 60 minutes time span by the activity monitor. Accuscan Versamax and Versadat software (Columbus Instruments, Columbus, Ohio) were used to convert the infrared beam breaks into horizontal activity counts. […] Males and females were analyzed separately.

[4] = test system: GPR88 KO and WT mice; test: In vivo striatal microdialysis, extracellular dopamine after amphetamine; conditions: 3 mg/kg i.p.; both genotypes, males and females
Experimental: Chromatographic separations were performed using a Capcell PAK™, Strong Cation Exchange columns (5 μm UG80, 1.5×150 mm; Shiseido, Phenomenex, USA). The mobile phase comprised (mM) 13 Na2HPO4, 87 NaH2PO4, 0.1 EDTA and 20% methanol, was adjusted to pH 6 and delivered at 0.2 ml/minutes at 40° C.

[5] = test system: GPR88 KO and WT mice; test: Apomorphine-induced climbing and stereotypy; type: in vivo
Experimental: (§1) The GPR88 KO and WT mice were acclimated to a wire cage (cylindrical ½″×½″ mesh with the dimensions of 4½″ d×5½″ h) for at least 2 hours before testing to allow proper habituation. […] (+ present, − absent). Readings were repeated every 5 minutes during a 30-minute test session.
The behavioral assessment was conducted over three conditions in succession: (1) an evaluation of the response to a subcutaneous vehicle (0.25% TWEEN® 80) injection to establish a baseline; (2) followed by an evaluation of the response to a dose of 0.3 mg/kg subcutaneous apomorphine injection; (3) followed by an evaluation of the response to 1 mg/kg subcutaneous apomorphine injection. Behavioral observation began 5 minutes after each injection. Vehicle was given at T0 minutes with observational assessment from T5-T35 minutes and habituation followed from T35-T65 minutes.
At T65, the 0.3 mg/kg dose of apomorphine was administered. Behavioral observation for the 0.3 mg/kg dose of apomorphine was from T70-T100, followed by another habituation from T100-T130 minutes.
At T130 min, the 1.0 mg/kg dose of apomorphine was administered and then the mice were scored from T135-T165 min. For each subject, the climbing scores were totaled for each observational period (maximum=12 per animal). Stereotypy scores were also summed up (maximum=6 per animal). […] Males and females were analyzed separately.

[6] = test system: GPR88 KO and WT mice; test: Antipsychotic block of apomorphine-induced climbing and stereotypy; type: in vivo; conditions: for minimal effective dose (MED), block of apomorphine-induced climbing / minimal effective dose (MED), block of apomorphine-induced stereotypy: i.p. 30 minutes before apomorphine 0.54 mg/kg
Experimental: as §1
Observation and scoring for climbing and stereotypy were performed as described in Example 6. […] Males and females were analyzed separately. […] For graphical representation, the data was normalized to the amount of climbing and stereotypy shown by the vehicle treated control group.

[7] = test system: GPR88 KO and WT mice; test: Haloperidol-induced catalepsy; conditions: 1 mg/kg i.p.; for percentage of maximum catalepsy over time: 30, 60, 90, 120 minutes
Experimental: Thirty, 60, 90, and 120 minutes following drug administration, the animal's forelimbs were draped over a thin horizontal rod 1¼″ high. The amount of time in seconds for which the animal maintained this awkward posture was recorded (60 seconds was maximum). Maintenance of this position was considered catalepsy. Animals that appeared to be sedated or had loss of muscle tone were checked for a righting reflex. Those mice that could not right themselves when placed on their backs were eliminated from the study. Mean time spent in the catalepsy position for the dose at each time was expressed as a percentage of maximum possible catalepsy. During the study's four time periods, the number of seconds with maintenance of the catalepsy position was recorded for each animal. Data was subjected to repeated-measures ANOVA followed by post-hoc analysis of least squares means. Males and females were analyzed separately.

[8] = test system: GPR88 KO and WT mice; conditions: for percentage prepulse inhibition (PPI), treatment effect: 0.54 mg/kg i.p. 30 minutes before testing, vs vehicle
Experimental: To detect potential phenotypic deficits in the GPR88 knockout mice, they were first evaluated for startle habituation. In brief, mice were tested using the SR-LAB (San Diego Instruments, San Diego, Calif.) system. Each system consists of a ventilated sound attenuated chamber containing a stabilimeter consisting of a Plexiglas cylinder (12.5 cm length, 3.5 cm diameter) mounted on a Plexiglas frame. Acoustic stimuli were delivered through a speaker mounted in the enclosure ceiling, that was 27 cm above the cylinder. Startle responses were transduced by a piezoelectric accelerometer mounted beneath the frame. Output signals were digitized and rectified as consecutive 1-millisecond (msec) readings (a total of 65 were recorded, and startle response was expressed as an averaged response across these samples) on a computer using the San Diego Instrument software. Mice were placed individually in the chamber for a 5-minute acclimation period at a background noise level of 64 dB.
Prepulse inhibition was measured immediately following the startle sensitivity test. Five different trial tests were used in studying prepulse inhibition and were performed in a pseudorandom order. These trial tests included (1) a no stimulus trial (64 dB background noise to determine basal activity), a pulse alone trial (118 dB, 40 ms duration), and three 20 ms prepulses at either 69, 76, or 84 dB intensities paired (100 ms, onset to onset) with the 118 dB pulse. […] Percentage prepulse inhibition was calculated as 100 minus the ratio of the average startle response observed at each prepulse+pulse trial relative to the pulse alone stimulus, times 100. The percentage prepulse at across dB levels was analyzed by repeated-measures ANOVA. […] Males and females were analyzed separately. […]
The PPI was averaged across the 3 dB levels and analyzed by a two-way ANOVA with genotype and treatment as the factors followed by a post hoc analysis of least square means. Males and females were again analyzed separately.

[9] = female GPR88 KO and WT mice, 1 mg/kg s.c.
[10] = GPR88 KO and WT female mice, 0.3 mg/kg
[11] = male WT mice, 0.54 and 1.0 mg/kg

T1 sequence (P61168 whole entry): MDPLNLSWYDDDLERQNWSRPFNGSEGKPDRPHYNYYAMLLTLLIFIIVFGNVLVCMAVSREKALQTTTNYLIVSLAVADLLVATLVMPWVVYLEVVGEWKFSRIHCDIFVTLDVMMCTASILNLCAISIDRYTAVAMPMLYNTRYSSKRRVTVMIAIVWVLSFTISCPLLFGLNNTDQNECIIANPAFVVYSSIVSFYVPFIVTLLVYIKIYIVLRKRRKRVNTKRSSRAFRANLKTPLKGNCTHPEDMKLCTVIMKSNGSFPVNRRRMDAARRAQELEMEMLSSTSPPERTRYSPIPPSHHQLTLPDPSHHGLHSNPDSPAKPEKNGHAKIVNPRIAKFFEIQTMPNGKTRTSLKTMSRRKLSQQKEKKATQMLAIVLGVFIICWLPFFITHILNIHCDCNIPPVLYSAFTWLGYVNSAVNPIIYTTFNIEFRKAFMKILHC

In the case of `c1ccc(C2(N3CCCCC3)CCCCC2)cc1` [PCP, phencyclidine], the “locomotor activity after administration” value ([1]; female WT and GPR88 KO mice, 1.0 mg/kg) is reported as “Neither of the genotypes responded”, the “locomotor activity after administration” value ([1]; female WT and GPR88 KO mice, 1.7 mg/kg or 3.0 mg/kg) is reported as “increased locomotor activity” and the “locomotor activation (total distance traveled), KO compared with WT” value ([1]; female mice) is reported as “increased sensitivity for locomotor activation”. The “locomotor activity after administration” value ([1]; male WT and GPR88 KO mice, 3 mg/kg i.p.) was “increased locomotor activity”, the “locomotor activity after administration” value ([1]; male WT and GPR88 KO mice, lower doses (1.0, 1.7 mg/kg)) was “Neither of the genotypes responded” and the “locomotor activation (total distance traveled), KO compared with WT” value ([1]; male mice) was “increased sensitivity for locomotor activation”.

With `O=C(CCCN1CCC2(CC1)C(=O)NCN2c1ccccc1)c1ccc(F)cc1` [[^3H]spiperone] the “Bmax (the number of available binding receptors)” value ([2]; striatal membranes of GPR88 KO mice) was 1.83 pmol/mg and the “Bmax (the number of available binding receptors)” value ([2]; striatal membranes of WT mice) was 1.34 pmoles/mg protein.

In the case of `CC(N)Cc1ccccc1` (centres unmarked) [amphetamine], the “locomotor activity after administration” value ([3]; female mice, 40-90 min) is reported as “significant increase in activity”, the “locomotor activity, KO compared with WT” value ([3]; female mice, 40-90 min) is reported as “more hyperactivity overall” and the “locomotor activity after administration” value ([3]; male mice (GPR88 KO), 40-90 min) is reported as “significant increase in activity”. For the same compound, the “locomotor activity, KO compared with WT” value ([3]; male mice) was “greater increase in activity up to the 50 minute time point” and the “striatal extracellular dopamine after administration” value [4] was “significant and equal increase in dopamine”.

In the case of `CN1CCc2cccc3c2[C@H]1Cc1ccc(O)c(O)c1-3` [apomorphine], the “average increase in climbing scores of GPR88 KO mice over the wild type mice” value ([5]; apomorphine-induced) is reported as 227%, the “average increase in stereotypy scores of GPR88 KO mice over the wild type mice” value ([5]; apomorphine-induced) is reported as 129% and the “climbing, dose effect” value [5, 9] is reported as “the most climbing”. The “stereotypy, dose effect” value [5, 9] was “the most stereotypy”, the “climbing scores, KO compared with WT” value ([5]; female mice, 0.3 mg/kg s.c.) was “higher climbing scores” and the “stereotypy, KO compared with WT” value ([5]; female mice, 0.3 mg/kg s.c.) was “more stereotypy”. For the same compound, the “climbing, KO compared with WT” value ([5]; female mice, 1 mg/kg s.c.) was “equivalent”, the “stereotypy scores, dose effect” value ([5]; male GPR88 KO and WT mice, 1 mg/kg s.c.) was “maximal stereotypy” and the “climbing scores, dose effect” value ([5]; male GPR88 KO and WT mice, vehicle, 0.3 and 1 mg/kg s.c.) was “climbing increasing with the dose of apomorphine”. The “climbing scores, KO compared with WT” value ([5]; male mice, 0.3 mg/kg s.c.) was “higher climbing scores”, the “stereotypy, KO compared with WT” value ([5]; male mice, 0.3 mg/kg s.c.) was “more stereotypy” and the “climbing, KO compared with WT” value ([5]; male mice, 1 mg/kg s.c.) was “equivalent”. The “stereotypy, KO compared with WT” value ([5]; male mice, 1 mg/kg s.c.) was “equivalent”.

`O=C(CCCN1CCC(O)(c2ccc(Cl)cc2)CC1)c1ccc(F)cc1` [haloperidol] was tested, and the “block of apomorphine-induced climbing” value [6, 10] was “full block of climbing”, the “block of apomorphine-induced stereotypy” value [6, 10] was “full block of stereotypy” and the “dose required to produce a full block of climbing” value ([6]; male GPR88 KO mice) was 1.0 mg/kg. The “minimal effective dose, apomorphine-induced climbing and stereotypy (summary)” value ([6]; male GPR88 KO mice) was 0.54 mg/kg, the “block of apomorphine-induced stereotypy” value ([6]; male GPR88 KO mice, 1.0 mg/kg) was 50% and the “minimal effective dose (MED), block of apomorphine-induced climbing” value ([6]; male GPR88 KO mice) was 0.54 mg/kg. The “minimal effective dose (MED), block of apomorphine-induced stereotypy” value ([6]; male GPR88 KO mice) was 0.54 mg/kg, the “minimal effective dose, apomorphine-induced climbing and stereotypy (summary)” value ([6]; male WT mice) was under 0.3 mg/kg and the “block of apomorphine-induced climbing” value [6, 11] was “full block of climbing”. The “block of apomorphine-induced stereotypy” value [6, 11] was “full block of stereotypy”, the “minimal effective dose (MED), block of apomorphine-induced climbing” value ([6]; male WT mice) was “less than or equal to 0.3 mg/kg” and the “minimal effective dose (MED), block of apomorphine-induced stereotypy” value ([6]; male WT mice) was “less than or equal to 0.3 mg/kg”. The “percentage of maximum catalepsy over time” value ([7]; GPR88 KO and WT male mice) was “percentage of maximum catalepsy increasing to the 120 minute test point”, the “percentage of maximum catalepsy over time” value ([7]; female mice) was “percentage of maximum catalepsy increasing to the 120 minute test point” and the “level of catalepsy, GPR88 KO compared with WT” value ([7]; male and female mice) was “equivalent levels of catalepsy”.

For `Cc1nc2n(c(=O)c1CCN1CCC(c3noc4cc(F)ccc34)CC1)CCCC2` [risperidone], the “deficit in PPI of GPR88 KO mice upon treatment” value ([8]; GPR88 KO mice, summary statement) was “normalized”, the “percentage prepulse inhibition (PPI), treatment effect” value ([8]; male GPR88 KO mice) was “significant treatment effect” and the “percentage prepulse inhibition (PPI), treatment effect” value ([8]; male WT mice) was “significant treatment effect”.
